Measurements as given in US20090181420A1, “Inhibiting Smad signaling promotes neuron regeneration” (Children's Medical Center Corporation, priority 2006, published 2009).

Key:
phospho-Smad2 = assay: Phospho-Smad2 in adult DRG after intraganglionic injection; format: in vivo, rat; settings: 2 μl of 5-10 mM injected into adult DRG (L4 and L5); pilot experiments
[1] = test system: adult DRG neurons (L4 and L5); assay: Axonal growth ability of injected adult DRG neurons cultured in vitro for 12 hrs; format: in vivo, rat; settings: injected into adult DRG; 3 or 7 days post-injection, cultured 12 hrs; vs saline
Protocol: (§1) Average axon length of the longest neurite from every individual neuron was measured and quantified as described before (Koprivica et al., 2005; Wang et al., 2002a; Wang et al., 2002b). Branching frequency was measured by dividing the number of branches from the longest neurite by the length of the neurite, as previously described (Smith and Skene, 1997). All measurements were made from at least 150 neurons per condition, from duplicate wells and from three independent experiments.
We next examined whether inhibiting this signaling pathway could enhance the intrinsic growth state of adult DRG neurons by pharmacological approaches. We injected SB505124 or the same volume of saline into the adult DRG (L4 and L5). 3 or 7 days post-injection, the axonal growth ability of injected DRG neurons were assayed by culturing DRG neurons in vitro for 12 hrs.

Smad2/3 signaling [2] = assay: Directed forepaw reaching (DFR) task after dorsal corticospinal tract transection; format: in vivo, Sprague Dawley rats; settings: rats, sixth week after surgery; SB-505124 30 mg/kg tail vein or siRNA 10 μl intrathecal, days 1-7; vs lesion and vehicle groups
Description: Adult Sprague Dawley rats (300-400 gm) are trained and tested in a directed forepaw reaching (DFR) apparatus which measures grasping ability. The apparatus, which is described in detail by Nash et al., supra, is a box that consists of two compartments: a main compartment for housing the rats and a minor compartment for the food, separated by a Plexiglas divider. The minor compartment is subdivided into slots of equal size, each holding a pellet of food. Between the slots and the Plexiglas there is a gap. The apparatus is configured such that in order to retrieve a food pellet from a slot, a rat must extend a forelimb through a hole in the Plexiglas divider, and grasp the pellet and lift it over the gap and out of the slot. If the rat merely rakes the food in the slot towards the hole in the Plexiglas, the food will drop from the slot into the gap and fall to the floor of the minor compartment. The floor of the minor compartment can be configured to allow a rat to retrieve food that drops or it can be lowered to prevent the rat from reaching dropped food. Prior to inducing spinal injury, the rats are food restricted, receiving ˜3 gm food/100 gm body weight per day, before and throughout training and testing. Weight is monitored to ensure that rats are reduced to no less than 80% of their original body weight at any time. […]

Smad2/3 signaling [3] = assay: Count of BDT-labeled CST axons caudal to spinal cord lesion; format: in vivo, Sprague Dawley rats; settings: rats, seven weeks and 3 d after lesioning; 1-19 mm caudal to lesion; vs lesioned control rats
Description: Rats are randomly assigned to control or experimental groups. Sham control rats undergo surgical procedure without lesioning, and with or without placement of an intrathecal catheter. Lesioned control rats receive no treatment, tail injection vehicle only treatment, intrathecal catheter only treatment, intrathecal catheter with vehicle only treatment, or intrathecal catheter and mismatch siRNA treatment. After anesthesia with isoflurane, the rats are placed on an operating board in such a way as to bend the cervical spinal cord for maximum exposure. A laminectomy is performed exposing the dorsum of the spinal cord between C2 and C4. The dorsal columns are identified bilaterally, and, in all rats except for those in the sham group, a suture needle is passed through the spinal cord, isolating the dorsal funiculus. The suture thread is gently lifted, and a pair of iridectomy scissors is used to bilaterally transect the dorsal funiculus, thereby transecting the dorsal corticospinal tract (CST). […]
Seven weeks after injury, rats are prepared for injection of biotin dextran tetramethylrhodamine (BDT; Molecular Probes). […] After anesthesia with isoflurane (5%), rats are placed in a stereotaxic instrument, and a total of six stereotaxically determined holes (0.9 mm diameter) are drilled in the skull over the primary motor cortices associated with the forelimbs. […]

embryonic DRG neurons = assay: Effect of activin A on axonal growth ability of embryonic DRG neurons (prior experiments); format: cell-based
adult DRG neurons = assay: Effect of activin A on axonal elongation of adult DRG neurons (prior experiments); format: cell-based
[4] = test system: dissociated adult rat DRG neurons; assay: Axonal growth of adult rat DRG neurons overexpressing Smad7; format: cell-based; settings: Smad7 overexpression vs control GFP
Protocol: (§2) For overexpression of Smad7 in DRGs, adult rat DRG neurons were co-transfected by electroporation with 2 μg pEGFP (Invitrogen) and 5 μg of an expression construct for FLAG-tagged Smad7 (Nakao et al., 1997) or control plasmid using the Rat Neuron Nucleofector Kit (Amaxa) following manufacturer's protocol. After brief purification, the neurons were plated at a density of 200-500 cells/mm2. For overexpression of Smad7 in cerebellar granule neurons (CGN), CGNs from P6 Sprague-Dawley rat pups were dissected, plated onto poly-D-lysine (20 μg/ml), and cultured in Basal Medium Eagle (Gibco) supplemented with 10% calf serum, 25 mM KCl, 2 mM L-glutamine, penicillin and streptomycin, at a density of 2.5×10^3 cells/mm2. CGNs were co-transfected with pEGFP and Smad7 or control plasmid at a 1 to 3 ratio using a modified calcium phosphate transfection method as described before (Konishi et al., 2004). […]
as §1, with “All measurements were made from at least 150 neurons per condition, from duplicate wells and from three independent experiments.” left out

[5] = test system: cerebellar granule neurons (CGNs) from postnatal rats; assay: Axonal growth of cerebellar granule neurons overexpressing Smad7; format: cell-based, rat; settings: Smad7 expression, effect became stronger with time
Protocol: as §2
as §1, with “All measurements were made from at least 150 neurons per condition, from duplicate wells and from three independent experiments.” left out

## Cc1cccc(-c2[nH]c(C(C)(C)C)nc2-c2ccc3c(c2)OCO3)n1.Cl [SB-505124, 2-(5-benzo[1,3]dioxol-5-yl-2-tert-butyl-3H-imidazol-4-yl)-6-methylpyridinehydrochloride]
phospho-Smad2
  phospho-Smad2 in the injected DRGs: significant reduction of phospho-Smad2
[1]
  axonal elongation of DRG neurons: significantly increased axonal elongation
  branching frequency of DRG neurons: reduced branching frequency
Smad2/3 signaling [2]
  DFR task performance (functional recovery after spinal injury): Significantly better performance
Smad2/3 signaling [3]
  number of BDT-labeled axons caudal to the lesion: Significantly more labeled axons at each distance

B1: activin A: TGFβ family member produced in skin (protein, UniProt P08476 311-426, looked up)
Inhibin beta A chain: GLECDGKVNICCKKQFFVSFKDIGWNDWIIAPSGYHANYCEGECPSHIAGTSGSSLSFHSTVINHYRMRGHSPFANLKSCCVPTKLRPMSMLYYDDGQNIIKKDIQNMIVEECGCS
Embryonic DRG neurons
  axonal growth ability: triggers a decline in axonal growth ability
Adult DRG neurons
  axonal elongation ability: reduces axonal elongation ability

B2: Smad7: FLAG-tagged Smad7 overexpressed from an expression construct; competes with Smad2/3 for binding to activated ALK (protein, UniProt O15105 1-426, looked up)
Mothers against …: MFRTKRSALVRRLWRSRAPGGEDEEEGAGGGGGGGELRGEGATDSRAHGAGGGGPGRAGCCLGKAVRGAKGHHHPHPPAAGAGAAGGAEADLKALTHSVLKKLKERQLELLLQAVESRGGTRTACLLLPGRLDCRLGPGAPAGAQPAQPPSSYSLPLLLCKVFRWPDLRHSSEVKRLCCCESYGKINPELVCCNPHHLSRLCELESPPPPYSRYPMDFLKPTADCPDAVPSSAETGGTNYLAPGGLSDSQLLLEPGDRSHWCVVAYWEEKTRVGRLYCVQEPSLDIFYDLPQGNGFCLGQLNSDNKSQLVQKVRSKIGCGIQLTREVDGVWVYNRSSYPIFIKSATLDNPDSRTLLVHKVFPGFSIKAFDYEKAYSLQRPNDHEFMQQPWTGFTVQISFVKGWGQCYTRQFISSCPCWLEVIFNSR
modifications: FLAG tag
[4]
  rate of axonal growth: significantly enhanced the rate of axonal growth
[5]
  axonal growth rate: dramatically increase axonal growth rate
